Starred links: 1 amine or outer side, 2 acyl side, 3 side chain; linkers in the order of their positions; H or OH if unused. Positions of bridges follow the written chain, without caps; N, C: chain ends. Non-standard residues stand in square brackets, D forms with d. Residues, ends and D or L forms follow the SMILES beside them. *: point of attachment. hPhe(3-Cl-4-CF3) = N[C@@H](CCc1ccc(C(F)(F)F)c(Cl)c1)C(=O)O; X19 = CC(C)(C)Oc1cc(CC[C@H](N[*:1])C(=O)[*:2])cc(Cl)c1Cl; X28 = CCCCOc1cc(CC[C@H](N[*:1])C(=O)[*:2])cc(Cl)c1Cl; NMePhe(4-CF3) = CN[C@@H](Cc1ccc(C(F)(F)F)cc1)C(=O)O; X29 = N#Cc1cc(CC[C@H](N[*:1])C(=O)[*:2])cc(Cl)c1Cl; X15 = COc1cc(CC[C@H](N[*:1])C(=O)[*:2])cc(Cl)c1Cl; X49 = Cn1ccc2cc(CC[C@H](N[*:1])C(=O)[*:2])ccc21; 3Oxa8azabicyclo(3.2.1)octane = C1CC2COCC1N2*; NMePhe(4-Me) = CN[C@@H](Cc1ccc(C)cc1)C(=O)O; NMeAla(cPent) = CN[C@@H](CC1CCCC1)C(=O)O; NMeGly(cPent) = CN[C@H](C(=O)O)C1CCCC1; NMeCha = CN[C@@H](CC1CCCCC1)C(=O)O; NMeChg = CN[C@H](C(=O)O)C1CCCCC1; NMeD = CN[C@@H](CC(=O)O)C(=O)O; NMeL = CN[C@@H](CC(C)C)C(=O)O; NMeNva = CCC[C@H](NC)C(=O)O; NMeV = CN[C@H](C(=O)O)C(C)C; NMeAbu = CC[C@H](NC)C(=O)O; NMeS = CN[C@@H](CO)C(=O)O; Morpholide = C1CN(*)CCO1; NMeA = CN[C@@H](C)C(=O)O; Piperidide = C1CCN(*)CC1; Pyrrolidide = C1CCN(*)C1; Ac5c = NC1(C(=O)O)CCCC1; Aze = O=C(O)[C@@H]1CCN1; Sar = CNCC(=O)O; Propyl = CCC*
Experiments:
[1] = test system: Human pancreatic cancer cell line AsPC-1; assay: Measurement of AsPC-1 cell growth inhibition (AsPC-1 CGI); type: cell-based; conditions: 96 h
Outline: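 AsPC-1 cells in 15% FBS RPMI-1640 were exposed to test compound for 96 hours at 37° C, with CellTiter-Glo as endpoint.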

[2] = biological target: T1, Kras and SOS1 (biotin-tagged human Kras loaded with GDP, His-tagged human SOS1) (Homo sapiens, UniProt P01116, G12D); assay: Protein-protein interaction inhibition between Kras and SOS1 (KrasGl2D-SOS PPI) using AlphaScreen; type: binding; conditions: AlphaScreen; biotin-tagged human Kras loaded with GDP, His-tagged human SOS1; read-out: KRAS G12D-SOS PPI IC50
T1 construct: made in house; host or cells: E. coli (stated for Kras only)
Outline: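 Read-out is acceptor-bead light at 520-620 nm, arising when 680 nm-irradiated nickel donor beads pass singlet oxygen to streptavidin acceptors. The bead pair links His-tagged SOS1 with biotin-tagged, GDP-bound Kras from E. coli.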

T1 sequence (P01116 1-188 isoform P01116-2 G12D): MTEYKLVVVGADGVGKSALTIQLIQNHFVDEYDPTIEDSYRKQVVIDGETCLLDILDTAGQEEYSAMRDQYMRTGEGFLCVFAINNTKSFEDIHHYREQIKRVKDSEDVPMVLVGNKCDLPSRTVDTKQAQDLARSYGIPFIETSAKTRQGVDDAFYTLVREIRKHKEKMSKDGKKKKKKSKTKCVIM

| Compound | IC50 [1] [nM] | IC50 [2] [nM] |
| --- | --- | --- |
| CC[C@H](C)[C@@H]1NC(=O)[C@H](CC)N(C)C(=O)C[C@@H](C(=O)N2C3CCC2COC3)N(C)C(=O)[C@H](C2CCCCC2)N(C)C(=O)C2(CCCC2)NC(=O)[C@@H]2CCCN2C(=O)[C@H](CCc2ccc(C(F)(F)F)c(Cl)c2)NC(=O)CN(C)C(=O)[C@H](Cc2ccc(C(F)(F)F)cc2)N(C)C(=O)CN(C)C(=O)CN(C)C1=O [Compound 1993] ([NMeAbu]I[Sar][Sar][NMePhe(4-CF3)][Sar][hPhe(3-Cl-4-CF3)]P[Ac5c][NMeChg][NMeD]-{3Oxa8azabicyclo(3.2.1)octane}; lactam N-11) | 50 to 100 | 0.64 |
| CCC[C@H]1C(=O)N[C@@H]([C@@H](C)CC)C(=O)N(C)CC(=O)N(C)CC(=O)N(C)[C@@H](Cc2ccc(C)cc2)C(=O)N(C)CC(=O)N[C@@H](CCc2ccc(C(F)(F)F)c(Cl)c2)C(=O)N2CCC[C@H]2C(=O)NC2(CCCC2)C(=O)N(C)[C@@H](C2CCCCC2)C(=O)N(C)[C@H](C(=O)N2C3CCC2COC3)CC(=O)N1C [Compound 1994] ([NMeNva]I[Sar][Sar][NMePhe(4-Me)][Sar][hPhe(3-Cl-4-CF3)]P[Ac5c][NMeChg][NMeD]-{3Oxa8azabicyclo(3.2.1)octane}; lactam N-11) | 50 to 100 | 0.58 |
| CCC[C@H]1C(=O)N[C@@H]([C@@H](C)CC)C(=O)N(C)CC(=O)N(C)CC(=O)N(C)[C@@H](CC2CCCCC2)C(=O)N(C)CC(=O)N[C@@H](CCc2ccc(C(F)(F)F)c(Cl)c2)C(=O)N2CCC[C@H]2C(=O)NC2(CCCC2)C(=O)N(C)[C@@H](C2CCCCC2)C(=O)N(C)[C@H](C(=O)N2CCOCC2)CC(=O)N1C [Compound 1996] ([NMeNva]I[Sar][Sar][NMeCha][Sar][hPhe(3-Cl-4-CF3)]P[Ac5c][NMeChg][NMeD]-Morpholide; lactam N-11) | 20 to 50 | 0.64 |
| CCC[C@H]1C(=O)N[C@@H]([C@@H](C)CC)C(=O)N(C)CC(=O)N(C)CC(=O)N(C)[C@@H](CC2CCCC2)C(=O)N(C)CC(=O)N[C@@H](CCc2ccc(C(F)(F)F)c(Cl)c2)C(=O)N2CCC[C@H]2C(=O)NC2(CCCC2)C(=O)N(C)[C@@H](C2CCCCC2)C(=O)N(C)[C@H](C(=O)N2CCOCC2)CC(=O)N1C [Compound 1998] ([NMeNva]I[Sar][Sar][NMeAla(cPent)][Sar][hPhe(3-Cl-4-CF3)]P[Ac5c][NMeChg][NMeD]-Morpholide; lactam N-11) | 100 to 500 | 0.75 |
| CC[C@H](C)[C@@H]1NC(=O)[C@H](CC)N(C)C(=O)C[C@@H](C(=O)N2CCOCC2)N(C)C(=O)[C@H](C2CCCCC2)N(C)C(=O)C2(CCCC2)NC(=O)[C@@H]2CCCN2C(=O)[C@H](CCc2ccc(C(F)(F)F)c(Cl)c2)NC(=O)CN(C)C(=O)[C@H](CC2CCCC2)N(C)C(=O)CN(C)C(=O)CN(C)C1=O [Compound 1999] ([NMeAbu]I[Sar][Sar][NMeAla(cPent)][Sar][hPhe(3-Cl-4-CF3)]P[Ac5c][NMeChg][NMeD]-Morpholide; lactam N-11) | 100 to 500 | 0.82 |
| CCC[C@H]1C(=O)N[C@@H]([C@@H](C)CC)C(=O)N(C)CC(=O)N(C)CC(=O)N(C)[C@@H](Cc2ccc(C)cc2)C(=O)N(C)CC(=O)N[C@@H](CCc2ccc(C(F)(F)F)c(Cl)c2)C(=O)N2CCC[C@H]2C(=O)NC2(CCCC2)C(=O)N(C)[C@@H](C2CCCCC2)C(=O)N(C)[C@H](C(=O)N2CCCC2)CC(=O)N1C [Compound 2004] ([NMeNva]I[Sar][Sar][NMePhe(4-Me)][Sar][hPhe(3-Cl-4-CF3)]P[Ac5c][NMeChg][NMeD]-Pyrrolidide; lactam N-11) | 20 to 50 | 0.33 |
| CCCOC[C@H]1C(=O)N(C)CC(=O)N[C@@H](CCc2ccc(C(F)(F)F)c(Cl)c2)C(=O)N2CCC[C@H]2C(=O)NC2(CCCC2)C(=O)N(C)[C@@H](C2CCCCC2)C(=O)N(C)[C@H](C(=O)N2CCCC2)CC(=O)N(C)[C@@H](CCC)C(=O)N[C@@H]([C@@H](C)CC)C(=O)N(C)CC(=O)N(C)CC(=O)N1C [Compound 2005] ([NMeNva]I[Sar][Sar][NMeS](Propyl)[Sar][hPhe(3-Cl-4-CF3)]P[Ac5c][NMeChg][NMeD]-Pyrrolidide; lactam N-11) | 50 to 100 | 0.64 |
| CCCOC[C@H]1C(=O)N(C)CC(=O)N[C@@H](CCc2ccc(C(F)(F)F)c(Cl)c2)C(=O)N2CCC[C@H]2C(=O)NC2(CCCC2)C(=O)N(C)[C@@H](C2CCCCC2)C(=O)N(C)[C@H](C(=O)N2CCCC2)CC(=O)N(C)[C@@H](CC(C)C)C(=O)N[C@@H]([C@@H](C)CC)C(=O)N(C)CC(=O)N(C)CC(=O)N1C [Compound 2006] ([NMeL]I[Sar][Sar][NMeS](Propyl)[Sar][hPhe(3-Cl-4-CF3)]P[Ac5c][NMeChg][NMeD]-Pyrrolidide; lactam N-11) | 50 to 100 | 0.62 |
| CC[C@H](C)[C@@H]1NC(=O)[C@H](C)N(C)C(=O)C[C@@H](C(=O)N2CCCCC2)N(C)C(=O)[C@H](C(C)C)N(C)C(=O)C2(CCCC2)NC(=O)[C@@H]2CCCN2C(=O)[C@H](CCc2cc(Cl)c(Cl)c(OC)c2)NC(=O)CN(C)C(=O)[C@H](CC2CCCCC2)N(C)C(=O)CN(C)C(=O)CN(C)C1=O [Compound 2061] ([NMeA]I[Sar][Sar][NMeCha][Sar][X15]P[Ac5c][NMeV][NMeD]-Piperidide; lactam N-11) | > 500 | 21 |
| CC[C@H](C)[C@@H]1NC(=O)[C@H](CC(C)C)N(C)C(=O)C[C@@H](C(=O)N2CCCCC2)N(C)C(=O)[C@H](C2CCCC2)N(C)C(=O)C2(CCCC2)NC(=O)[C@@H]2CCCN2C(=O)[C@H](CCc2ccc3c(ccn3C)c2)NC(=O)CN(C)C(=O)[C@H](CC2CCCCC2)N(C)C(=O)[C@@H]2CCN2C(=O)[C@H](C)N(C)C1=O [Compound 2064] ([NMeL]I[NMeA][Aze][NMeCha][Sar][X49]P[Ac5c][NMeGly(cPent)][NMeD]-Piperidide; lactam N-11) | 100 to 500 | 12 |
| CCCCOc1cc(CC[C@@H]2NC(=O)CN(C)C(=O)[C@H](CC3CCCCC3)N(C)C(=O)CN(C)C(=O)CN(C)C(=O)[C@H]([C@@H](C)CC)NC(=O)[C@H](C)N(C)C(=O)C[C@@H](C(=O)N3CCCCC3)N(C)C(=O)[C@H](C3CCCCC3)N(C)C(=O)C3(CCCC3)NC(=O)[C@@H]3CCCN3C2=O)cc(Cl)c1Cl [Compound 2066] ([NMeA]I[Sar][Sar][NMeCha][Sar][X28]P[Ac5c][NMeChg][NMeD]-Piperidide; lactam N-11) | > 500 | 63 |
| CC[C@H](C)[C@@H]1NC(=O)[C@H](C)N(C)C(=O)C[C@@H](C(=O)N2CCCCC2)N(C)C(=O)[C@H](C(C)C)N(C)C(=O)C2(CCCC2)NC(=O)[C@@H]2CCCN2C(=O)[C@H](CCc2cc(Cl)c(Cl)c(C#N)c2)NC(=O)CN(C)C(=O)[C@H](CC2CCCCC2)N(C)C(=O)CN(C)C(=O)CN(C)C1=O [Compound 2071] ([NMeA]I[Sar][Sar][NMeCha][Sar][X29]P[Ac5c][NMeV][NMeD]-Piperidide; lactam N-11) | > 500 | 9.2 |
| CC[C@H](C)[C@@H]1NC(=O)[C@H](C)N(C)C(=O)C[C@@H](C(=O)N2CCCCC2)N(C)C(=O)[C@H](C(C)C)N(C)C(=O)C2(CCCC2)NC(=O)[C@@H]2CCCN2C(=O)[C@H](CCc2cc(Cl)c(Cl)c(OC(C)(C)C)c2)NC(=O)CN(C)C(=O)[C@H](CC2CCCCC2)N(C)C(=O)CN(C)C(=O)CN(C)C1=O [Compound 2073] ([NMeA]I[Sar][Sar][NMeCha][Sar][X19]P[Ac5c][NMeV][NMeD]-Piperidide; lactam N-11) | > 500 | 12 |
| CC[C@H](C)[C@@H]1NC(=O)[C@H](C)N(C)C(=O)C[C@@H](C(=O)N2CCCCC2)N(C)C(=O)[C@H](C2CCCCC2)N(C)C(=O)C2(CCCC2)NC(=O)[C@@H]2CCCN2C(=O)[C@H](CCc2cc(Cl)c(Cl)c(C#N)c2)NC(=O)CN(C)C(=O)[C@H](CC2CCCCC2)N(C)C(=O)CN(C)C(=O)CN(C)C1=O [Compound 2075] ([NMeA]I[Sar][Sar][NMeCha][Sar][X29]P[Ac5c][NMeChg][NMeD]-Piperidide; lactam N-11) | > 500 | 1.1 |
| CC[C@H](C)[C@@H]1NC(=O)[C@H](C)N(C)C(=O)C[C@@H](C(=O)N2CCCCC2)N(C)C(=O)[C@H](C2CCCCC2)N(C)C(=O)C2(CCCC2)NC(=O)[C@@H]2CCCN2C(=O)[C@H](CCc2cc(Cl)c(Cl)c(OC)c2)NC(=O)CN(C)C(=O)[C@H](CC2CCCCC2)N(C)C(=O)CN(C)C(=O)CN(C)C1=O [Compound 2081] ([NMeA]I[Sar][Sar][NMeCha][Sar][X15]P[Ac5c][NMeChg][NMeD]-Piperidide; lactam N-11) | > 500 | 2 |
| CC[C@H](C)[C@@H]1NC(=O)[C@H](C)N(C)C(=O)C[C@@H](C(=O)N2CCCCC2)N(C)C(=O)[C@H](C2CCCCC2)N(C)C(=O)C2(CCCC2)NC(=O)[C@@H]2CCCN2C(=O)[C@H](CCc2cc(Cl)c(Cl)c(OC(C)(C)C)c2)NC(=O)CN(C)C(=O)[C@H](CC2CCCCC2)N(C)C(=O)CN(C)C(=O)CN(C)C1=O [Compound 2082] ([NMeA]I[Sar][Sar][NMeCha][Sar][X19]P[Ac5c][NMeChg][NMeD]-Piperidide; lactam N-11) | > 500 | 41 |
| CCCCOc1cc(CC[C@@H]2NC(=O)CN(C)C(=O)[C@H](CC3CCCCC3)N(C)C(=O)CN(C)C(=O)CN(C)C(=O)[C@H]([C@@H](C)CC)NC(=O)[C@H](C)N(C)C(=O)C[C@@H](C(=O)N3CCCCC3)N(C)C(=O)[C@H](C(C)C)N(C)C(=O)C3(CCCC3)NC(=O)[C@@H]3CCCN3C2=O)cc(Cl)c1Cl [Compound 2083] ([NMeA]I[Sar][Sar][NMeCha][Sar][X28]P[Ac5c][NMeV][NMeD]-Piperidide; lactam N-11) | > 500 | 52 |

Source: US12371454B2, “Cyclic peptide compound having Kras inhibitory action” (priority 2019, dated 2025)
